Data as given in patent publication US5998433A, “Condensed compounds, their production and use” (Takeda Chemical Industries, Ltd., priority 1994, dated 1999).
Structures can show the parent of a compound that is named as a salt.

Tests used:
[1] = system: Candida glabrata IFO 0622; test: Antifungal activity (agar plate dilution method), organism D; type: cell-based; settings: Nakaseomyces glabratus, IFO0622, 35° C., 20 hours, pH 7.0
Description: (§1) Determination of Antifungal Activity (Agar Plate Dilution Method)
(§2) RPMI 1640 (Gibco BRL) was dissolved in 0.3 M MOPS buffer, pH 7.0, to obtain a 2-fold dilution; this solution was filtered to remove germ cells (0.45 μm). Separately, 1.4% agar (Wako Pure Chemical Industries) was thermally sterilized (121° C., 15 minutes). This agar was mixed with an equal amount of the above 2-fold diluted RPMI 1640 (0.15 M MOPS, pH 7.0). To 9.9 ml of this RPMI 1640 (0.15 M MOPS, pH 7.0)-0.7% agar medium, 0.1 ml of a 100-fold diluted DMSO solution of the test drug was added; this mixture was prepared as an agar plate in a petri dish 9 cm in diameter. The drug (dissolved in DMSO to 100-fold dilution) was used in a series of 2-fold dilutions of a starting concentration of 64 μg/ml in the agar medium. For drug-free control, an agar medium containing 0.1 ml of DMSO or […] of sterile water was prepared. An inoculum of frozen cells was diluted with physiological saline and spot inoculated onto the agar medium (0.005 ml; 700-15,000 cfu) using a microplanter (Sakuma Seisakusho), followed by cultivation at 35° C. for 20 hours. Antifungal activity was assessed macroscopically; the minimum concentration for complete growth inhibition was expressed as MIC (minimum growth inhibitory concentration).

[2] = system: Candida albicans IFO 0583; test: Antifungal activity (agar plate dilution method), organism A; type: cell-based; settings: IFO0583, 35° C., 20 hours, pH 7.0
Description: as §1, §2

[3] = system: Candida tropicalis IFO 0587; test: Antifungal activity (agar plate dilution method), organism B; type: cell-based; settings: IFO0587, 35° C., 20 hours, pH 7.0
Description: as §1, §2

Candida krusei IFO 0584 = test: Antifungal activity (agar plate dilution method), organism E; type: cell-based; settings: Pichia kudriavzevii, IFO0584, 35° C., 20 hours, pH 7.0
Description: as §1, §2

Candida krusei IFO 1162 = test: Antifungal activity (agar plate dilution method), organism F; type: cell-based; settings: Pichia kudriavzevii, IFO1162, 35° C., 20 hours, pH 7.0
Description: as §1, §2

[4] = system: Aspergillus fumigatus IFO 6344; test: Antifungal activity (agar plate dilution method), organism H; type: cell-based; settings: IFO6344, 35° C., 20 hours, pH 7.0
Description: as §1, §2

[5] = system: Candida tropicalis IFO 10241; test: Antifungal activity (agar plate dilution method), organism C; type: cell-based; settings: IFO10241, 35° C., 20 hours, pH 7.0
Description: as §1, §2

Candida utilis IFO 0619 = test: Antifungal activity (agar plate dilution method), organism G; type: cell-based; settings: Williopsis jadinii, IFO0619, 35° C., 20 hours, pH 7.0
Description: as §1, §2

[6] = system: Aspergillus niger IFO 4414; test: Antifungal activity (agar plate dilution method), organism I; type: cell-based; settings: IFO4414, 35° C., 20 hours, pH 7.0
Description: as §1, §2

[7] = Plasma HDL-cholesterol-elevating effect in Wistar fatty rats; type: in vivo, Female Wistar fatty rats; settings: for HDL-cholesterol / Total cholesterol / Glucose / Triglyceride / Non-HDL-cholesterol: plasma, 1 week, stomach tube, mean ± standard deviation; for HDL-cholesterol: control 92.4 ± 9.2; for Total cholesterol: control 154 ± 13; for Glucose: control 285 ± 45; for Triglyceride: control 694 ± 192; for Non-HDL-cholesterol: total minus HDL, control 62.0 ± 12.5
Description: Plasma HDL-cholesterol-elevating Effect in Wistar Fatty Rats
Female Wistar fatty rats (19 weeks of age, bred in Experimental Animals Unit, Takeda Chemical Industries, Ltd.) were given a 0.5% methyl-cellulosesolution of compound 31 by a stomach tube for 1 week. Blood was collected via the orbital sinus under non-fasting conditions; plasma total cholesterol and HDL-cholesterol were enzymatically determined using a commercial kit (produced by Wako Pure Chemical Industries, Ltd.). Non-HDL-cholesterol levels were obtained by subtracting HDL-cholesterol from total cholesterol levels. Triglyceride and glucose were also enzymatically determined using commercial kits (both produced by Iatron Laboratories, Inc.).

[8] = system: Cholesterogenesis in Rat Liver; test: Inhibition of cholesterogenesis in rat liver ([14C] acetic acid incorporation); type: in vivo, male Sprague-Dawley rats; settings: by stomach tube, lower values indicate higher inhibitory activity
Description: Inhibition of Cholesterogenesis in Rat Liver
An aqueous solution of the test drug was administered, by a stomach tube, to male Sprague-Dawley rats at 5 weeks of age; 1 hour later, [^14 C] acetic acid was intravenously administered at a dose of 10 μCi per animal. One hour later, the animals were bled, livers were excised and a portion of liver was treated with a chloroform:methanol mixture to extract lipids. After the lipid fraction was saponified, sterol was extracted with petroleum ether, precipitated using digitonin and the radioactivity in the precipitate fraction was determined using a scintillation counter. The control group orally received 0.5% methyl cellulose solution alone.
The results are shown in Table 3 (lower percent control values indicate higher cholesterol synthesis inhibitory activity).

Compound	MIC [1] [µg/mL]	MIC [2] [µg/mL]	MIC [3] [µg/mL]	MIC (Candida krusei IFO 0584) [µg/mL]	MIC (Candida krusei IFO 1162) [µg/mL]	MIC [4] [µg/mL]	MIC [5] [µg/mL]	MIC (Candida utilis IFO 0619) [µg/mL]	MIC [6] [µg/mL]	also measured
CN(C)Cc1cc2c(o1)CCN(C(=O)CCCCCc1ccccc1)C2 [Example 6, 1-(2-dimethylaminomethyl-6,7-dihydro-4H-furo[3,2-c]pyridin-5-yl)-6-phenylhexan-1-one hydrochloride]	32	16	2	4	16	16	16	2	8	–
CCCCCCCc1ccc(C(=O)N2CCc3cc(CN(C)C)oc3C2)cc1 [Example 21, N,N-dimethyl-[6-(4-heptylbenzoyl)-4,5,6,7-tetrahydrofuro[2,3-c]pyridin-2-ylmethyl]amine hydrochloride]	4	2	2	1	2	1	2	1	1	–
CN(C)Cc1cc2c(o1)CN(C(=O)CCCCCc1ccc(F)cc1)CC2 [Example 27, 1-(2-dimethylaminomethyl-5,7-dihydro-4H-furo[2,3-c]pyridin-6-yl)-6-(4-fluorophenyl)hexan-1-one hydrochloride]	16	16	32	4	8	2	64	2	2	–
CN(C)Cc1cc2c(o1)CCN(C(=O)CCCCCc1ccc(F)cc1)C2 [Example 28, 1-(2-dimethylaminomethyl-6,7-dihydro-4H-furo[3,2-c]pyridin-5-yl)-6-(4-fluorophenyl)hexan-1-one hydrochloride]	16	8	2	4	8	4	32	2	4	–
CN(C)Cc1cc2c(o1)CN(C(=O)c1ccc(C(=O)c3ccc(Cl)cc3)cc1)CC2 [Example 31, N,N-dimethyl-[6-[4-(4-chlorobenzoyl)benzoyl]-4,5,6,7-tetrahydrofuro[2,3-c]pyridin-2-ylmethyl]amine hydrochloride]	64	8	2	16	32	0.5	16	4	0.5	Plasma HDL-cholesterol level ([7]; in words, Wistar fatty rats): increased significantly, depending on dose; Plasma glucose level ([7]; in words, Wistar fatty rats): not affected; Plasma non-HDL-cholesterol level ([7]; in words, Wistar fatty rats): not affected; Plasma total cholesterol level ([7]; in words, Wistar fatty rats): increased significantly, depending on dose; Plasma triglyceride level ([7]; in words, Wistar fatty rats): not affected; HDL-cholesterol ([7]; 0.1 mg/kg-day, p<0.05): 113 ± 15.4 mg/dL; Total cholesterol ([7]; 0.1 mg/kg-day): 175 ± 21 mg/dL; Glucose ([7]; 0.1 mg/kg-day): 251 ± 72 mg/dL; Triglyceride ([7]; 0.1 mg/kg-day): 599 ± 195 mg/dL; Non-HDL-cholesterol ([7]; 0.1 mg/kg-day): 62.5 ± 7.9 mg/dL; HDL-cholesterol ([7]; 0.3 mg/kg-day, p<0.05): 135 mg/dL; Total cholesterol ([7]; 0.3 mg/kg-day, p<0.05): 192 ± 24 mg/dL; Glucose ([7]; 0.3 mg/kg-day): 242 ± 39 mg/dL; Triglyceride ([7]; 0.3 mg/kg-day): 538 ± 155 mg/dL; Non-HDL-cholesterol ([7]; 0.3 mg/kg-day): 57.1 ± 10.7 mg/dL
CN(C)Cc1cc2c(o1)CCN(C(=O)c1ccc(C(=O)c3ccc(Cl)cc3)cc1)C2 [Example 32, N,N-dimethyl-[5-[4-(4-chlorobenzoyl)benzoyl]-4,5,6,7-tetrahydrofuro[3,2-c]pyridin-2-ylmethyl]amine hydrochloride]	32	16	8	32	32	2	32	8	2	–
CN(C)Cc1cc2c(o1)CN(C(=O)c1ccc(/C=C\c3ccccc3)cc1)CC2 [Example 33, (Z)-N,N-dimethyl-[6-(4-stilbenecarbonyl)-4,5,6,7-tetrahydrofuro[2,3-c]pyridin-2-ylmethyl]amine hydrochloride]	16	32	16	8	16	0.5	64	4	0.25	–
CNCc1cc2c(o1)CN(C(=O)CCCCCc1ccccc1)CC2 [Example 38, 1-(2-methylaminomethyl-5,7-dihydro-4H-furo[2,3-c]pyridin-6-yl)-6-phenylhexan-1-one hydrochloride]	–	–	–	–	–	–	–	–	–	Cholesterol synthesis in rat liver, % of control ([8]; 30 mg/kg): 29.9 % Control
CCN(CC)Cc1cc2c(o1)CN(C(=O)c1ccc(C(=O)c3ccccc3)cc1)CC2 [Example 39, N,N-diethyl-[6-(4-benzoylbenzoyl)-4,5,6,7-tetrahydrofuro[2,3-c]pyridin-2-ylmethyl]amine hydrochloride]	–	–	–	–	–	–	–	–	–	Cholesterol synthesis in rat liver, % of control ([8]; 3.0 mg/kg): 64.6 % Control
CN(C)Cc1cc2c(o1)CN(C(=O)CCCCSc1ccccc1)CC2 [Example 43, 1-(2-dimethylaminomethyl-5,7-dihydro-4H-furo[2,3-c]pyridin-6-yl)-5-phenylthiopentan-1-one hydrochloride]	16	8	2	16	16	8	8	2	4	–
CN(C)Cc1cc2c(o1)CCN(C(=O)CCCCSc1ccccc1)C2 [Example 44, 1-(2-dimethylaminomethyl-6,7-dihydro-4H-furo[3,2-c]pyridin-5-yl)-5-phenylthiopentan-1-one hydrochloride]	32	16	8	8	16	8	8	4	8	–
CN(C)Cc1cc2c(o1)CCN(C(=O)OCCCCc1ccccc1)C2 [Example 48, N,N-dimethyl-[5-(4-phenylbutoxycarbonyl)-4,5,6,7-tetrahydrofuro[3,2-c]pyridin-2-ylmethyl]amine hydrochloride]	32	16	8	8	16	32	64	2	16	–
CN(C)Cc1cc2c(o1)CCN(S(=O)(=O)CCCCCc1ccccc1)C2 [Example 53, N,N-dimethyl-[5-(5-phenylpentylsulfonyl)-4,5,6,7-tetrahydrofuro[3,2-c]pyridin-2-ylmethyl]amine hydrochloride]	–	–	–	–	–	–	–	–	–	Cholesterol synthesis in rat liver, % of control ([8]; 10 mg/kg): 42.3 % Control
